Reference: patent publication US8415469B2, “Compounds and methods for kinase modulation, and indications therefor” (Plexxikon Inc., priority 2005, dated 2013)

What was measured:
Assay type in all cases: biochemical
B-Raf = molecular target: T1, B-Raf (Homo sapiens, UniProt P15056); assay: AlphaScreen kinase assay, B-Raf; conditions: read-out: IC50, activity toward kinase B-Raf
T1 construct: purchased Upstate Biotechnology

B-Raf V600E = molecular target: T2, B-Raf V600E (Homo sapiens, UniProt P15056, V600E); assay: AlphaScreen kinase assay, B-Raf V600E; conditions: read-out: IC50, activity toward kinase B-Raf V600E
T2 construct: P4254. pFastBacBD-CDC37 BRAF D437-K722-X, V600E; His6 with pFastBac HT leader (TEV site) (N); made in house; host or cells: Sf9 (baculovirus; chaperone CDC37 co-expressed)
T2 sequence (P15056 with tags, fused parts or gaps V600E): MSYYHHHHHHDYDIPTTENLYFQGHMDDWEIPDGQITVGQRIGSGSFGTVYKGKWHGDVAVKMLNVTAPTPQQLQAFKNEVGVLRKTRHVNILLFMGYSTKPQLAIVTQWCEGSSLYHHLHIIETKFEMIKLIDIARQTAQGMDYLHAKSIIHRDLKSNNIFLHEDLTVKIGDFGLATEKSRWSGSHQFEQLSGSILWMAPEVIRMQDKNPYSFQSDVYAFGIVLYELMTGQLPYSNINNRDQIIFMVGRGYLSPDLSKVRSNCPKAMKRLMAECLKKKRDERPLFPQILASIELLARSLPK

c-Raf-1 = molecular target: T3, c-Raf-1 (Homo sapiens, UniProt P04049); assay: AlphaScreen kinase assay, c-Raf-1; conditions: read-out: IC50, activity toward kinase c-Raf-1
T3 construct: purchased Upstate Biotechnology
T3 sequence (P04049 whole entry): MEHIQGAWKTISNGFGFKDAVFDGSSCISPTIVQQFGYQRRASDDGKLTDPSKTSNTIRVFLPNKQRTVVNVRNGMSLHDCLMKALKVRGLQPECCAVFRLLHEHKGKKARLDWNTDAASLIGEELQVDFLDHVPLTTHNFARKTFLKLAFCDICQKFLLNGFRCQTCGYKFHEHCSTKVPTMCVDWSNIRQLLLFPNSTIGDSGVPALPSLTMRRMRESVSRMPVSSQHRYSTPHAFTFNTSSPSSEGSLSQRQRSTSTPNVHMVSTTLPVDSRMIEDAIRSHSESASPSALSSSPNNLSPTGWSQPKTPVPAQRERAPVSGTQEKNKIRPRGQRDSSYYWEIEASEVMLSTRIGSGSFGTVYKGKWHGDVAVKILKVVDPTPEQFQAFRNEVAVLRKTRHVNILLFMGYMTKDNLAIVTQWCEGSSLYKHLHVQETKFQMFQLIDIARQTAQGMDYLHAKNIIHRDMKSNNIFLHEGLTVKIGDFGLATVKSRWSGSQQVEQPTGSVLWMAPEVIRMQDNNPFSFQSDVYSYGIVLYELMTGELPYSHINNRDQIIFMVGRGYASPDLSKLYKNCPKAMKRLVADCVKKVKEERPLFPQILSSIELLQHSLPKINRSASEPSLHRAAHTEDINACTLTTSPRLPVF

FGFR1 = molecular target: T4, FGFR1 (Homo sapiens, UniProt P11362, C488A/C584S); assay: AlphaScreen kinase assay, FGFR1; conditions: read-out: IC50, activity toward kinase FGFR
T4 construct: P1351.pET N6 BI-PTP FGFR A458-E765-X C488A, C584S; made in house; host or cells: E. coli (PTP1B co-expressed)
T4 sequence (P11362 458-765 C488A/C584S): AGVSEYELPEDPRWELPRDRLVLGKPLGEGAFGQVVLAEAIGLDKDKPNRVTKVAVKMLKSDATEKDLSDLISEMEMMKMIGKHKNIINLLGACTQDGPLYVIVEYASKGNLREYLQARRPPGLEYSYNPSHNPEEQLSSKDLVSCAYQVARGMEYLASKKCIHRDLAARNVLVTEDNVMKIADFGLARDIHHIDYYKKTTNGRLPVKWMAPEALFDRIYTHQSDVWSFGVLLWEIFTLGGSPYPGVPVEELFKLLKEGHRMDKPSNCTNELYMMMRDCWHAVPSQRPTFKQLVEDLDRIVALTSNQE

Jnk2 = molecular target: T5, Jnk2 (Homo sapiens, UniProt P45984); assay: AlphaScreen kinase assay, Jnk2; conditions: read-out: IC50, activity toward kinase Jnk2
T5 construct: purchased Roche Protein Expression Group (Indianapolis, IN)
T5 sequence (P45984 whole entry): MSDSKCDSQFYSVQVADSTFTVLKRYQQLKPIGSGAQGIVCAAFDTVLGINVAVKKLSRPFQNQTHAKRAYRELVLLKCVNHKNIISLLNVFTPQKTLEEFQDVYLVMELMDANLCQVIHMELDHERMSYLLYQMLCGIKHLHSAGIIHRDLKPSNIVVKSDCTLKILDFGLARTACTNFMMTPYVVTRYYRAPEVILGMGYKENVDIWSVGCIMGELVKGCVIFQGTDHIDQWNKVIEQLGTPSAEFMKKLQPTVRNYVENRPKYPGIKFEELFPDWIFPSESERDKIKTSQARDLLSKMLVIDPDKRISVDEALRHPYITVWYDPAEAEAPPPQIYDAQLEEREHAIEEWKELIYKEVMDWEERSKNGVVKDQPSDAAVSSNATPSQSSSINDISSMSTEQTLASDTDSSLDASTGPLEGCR
Description: AlphaScreen assay was used to screen additional kinases. The assay is similarly dependent on the phosphorylation of a peptide substrate. In this assay, an antibody that recognizes phosphorylated substrate is bound to an acceptor bead. The peptide substrate is attached to biotin, which binds to a donor head that contains streptavidin. Thus phosphorylated substrate is bound by antibody and streptavidin, bringing the donor and acceptor heads into close proximity when kinase is not inhibited. The donor produces singlet oxygen which results in emission from the acceptor when they are in close proximity. Conversely, when kinase is inhibited, the donor and acceptor beads are not associated and the emission from the acceptor is reduced.
AlphaScreen assays were done using compounds dissolved in DMSO to a concentration of 20 mM. The compounds were diluted accordingly to the desired final concentrations in each sample well, using 1:3 serial dilution for a total of 8 concentration points.

Ret = molecular target: T6, Ret (Homo sapiens, UniProt P07949); assay: AlphaScreen kinase assay, Ret; conditions: read-out: IC50, activity toward kinase Ret
T6 construct: P1378.pET-SF BI-PTP RET H661-R1012 HIS; made in house
T6 sequence (P07949 with tags, fused parts or gaps): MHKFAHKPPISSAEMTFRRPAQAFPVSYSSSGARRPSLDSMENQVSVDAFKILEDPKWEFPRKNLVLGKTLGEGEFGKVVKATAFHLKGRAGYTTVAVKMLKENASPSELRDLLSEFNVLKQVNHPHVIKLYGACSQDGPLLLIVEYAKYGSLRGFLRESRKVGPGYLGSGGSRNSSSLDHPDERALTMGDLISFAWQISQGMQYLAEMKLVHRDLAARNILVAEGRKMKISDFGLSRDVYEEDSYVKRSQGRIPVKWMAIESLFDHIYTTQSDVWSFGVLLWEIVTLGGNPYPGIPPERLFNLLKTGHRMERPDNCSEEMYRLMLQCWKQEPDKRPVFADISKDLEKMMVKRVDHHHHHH

Flt1 = molecular target: T7, Flt1 (Homo sapiens, UniProt P17948); assay: AlphaScreen kinase assay, Flt1; conditions: read-out: IC50, activity toward kinase Flt1
T7 construct: P1826.pETN6 BI-PTP FLT1 M799-D1165-X WT; His6 (N); made in house; host or cells: E. coli (PTP1B co-expressed)
T7 sequence (P17948 with tags, fused parts or gaps): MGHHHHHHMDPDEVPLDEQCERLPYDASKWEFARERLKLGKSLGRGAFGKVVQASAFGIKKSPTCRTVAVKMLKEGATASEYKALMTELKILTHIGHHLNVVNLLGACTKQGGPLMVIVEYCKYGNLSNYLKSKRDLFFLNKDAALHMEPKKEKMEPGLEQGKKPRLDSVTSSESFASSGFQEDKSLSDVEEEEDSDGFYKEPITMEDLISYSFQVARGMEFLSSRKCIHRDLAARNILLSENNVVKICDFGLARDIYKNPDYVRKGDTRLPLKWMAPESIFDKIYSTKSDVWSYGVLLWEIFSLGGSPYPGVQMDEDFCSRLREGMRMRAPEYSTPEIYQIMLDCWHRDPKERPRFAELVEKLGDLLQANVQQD

Fms = molecular target: T8, Fms (Homo sapiens, UniProt P07333); assay: AlphaScreen kinase assay, Fms; conditions: read-out: IC50, activity toward kinase Fms
T8 construct: purchased Upstate Biotechnology
T8 sequence (P07333 20-972): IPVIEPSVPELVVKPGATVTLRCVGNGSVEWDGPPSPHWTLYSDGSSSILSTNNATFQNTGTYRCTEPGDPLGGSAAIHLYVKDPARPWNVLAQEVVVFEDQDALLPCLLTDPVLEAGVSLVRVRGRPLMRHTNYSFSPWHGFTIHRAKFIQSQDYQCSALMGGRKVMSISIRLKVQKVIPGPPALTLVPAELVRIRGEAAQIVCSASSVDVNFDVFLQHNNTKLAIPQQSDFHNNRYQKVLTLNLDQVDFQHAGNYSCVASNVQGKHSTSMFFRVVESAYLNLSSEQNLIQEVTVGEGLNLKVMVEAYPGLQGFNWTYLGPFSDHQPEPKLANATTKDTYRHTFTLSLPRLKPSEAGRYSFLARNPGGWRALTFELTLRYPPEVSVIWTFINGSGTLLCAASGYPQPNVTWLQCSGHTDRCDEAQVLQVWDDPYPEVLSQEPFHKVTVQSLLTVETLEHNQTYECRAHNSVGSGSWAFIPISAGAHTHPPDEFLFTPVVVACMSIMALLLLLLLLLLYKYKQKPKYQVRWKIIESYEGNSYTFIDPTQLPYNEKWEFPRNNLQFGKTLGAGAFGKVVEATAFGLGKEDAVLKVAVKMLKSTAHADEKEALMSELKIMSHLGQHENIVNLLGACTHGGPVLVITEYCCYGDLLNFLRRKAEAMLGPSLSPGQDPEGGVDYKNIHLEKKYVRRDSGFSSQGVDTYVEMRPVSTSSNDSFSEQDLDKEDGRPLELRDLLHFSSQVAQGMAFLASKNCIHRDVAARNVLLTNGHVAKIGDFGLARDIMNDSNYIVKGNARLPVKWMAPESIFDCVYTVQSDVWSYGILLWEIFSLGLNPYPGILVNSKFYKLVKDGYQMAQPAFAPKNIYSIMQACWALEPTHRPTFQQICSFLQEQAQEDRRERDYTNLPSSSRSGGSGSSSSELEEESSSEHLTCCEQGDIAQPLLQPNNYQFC

Kit = molecular target: T9, Kit (Homo sapiens, UniProt P10721); assay: AlphaScreen kinase assay, Kit; conditions: read-out: IC50, activity toward kinase Kit
T9 construct: P1332.N6 BI PTP KIT M552-K948-X COD; His6 (N); made in house; host or cells: E. coli (PTP1B co-expressed)
T9 sequence (P10721 with tags, fused parts or gaps): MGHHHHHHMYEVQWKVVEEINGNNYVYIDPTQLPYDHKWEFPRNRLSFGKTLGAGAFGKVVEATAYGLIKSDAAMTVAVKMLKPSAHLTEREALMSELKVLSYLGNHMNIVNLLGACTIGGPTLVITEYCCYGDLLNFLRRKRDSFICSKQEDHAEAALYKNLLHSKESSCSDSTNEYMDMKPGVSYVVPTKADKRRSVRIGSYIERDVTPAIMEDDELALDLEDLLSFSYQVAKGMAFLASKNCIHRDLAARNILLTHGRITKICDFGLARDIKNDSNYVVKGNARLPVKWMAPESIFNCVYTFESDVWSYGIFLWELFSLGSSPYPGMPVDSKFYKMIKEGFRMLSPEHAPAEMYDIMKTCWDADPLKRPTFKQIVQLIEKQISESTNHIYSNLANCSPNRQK

Jnk1 = molecular target: T10, Jnk1 (Homo sapiens, UniProt P45983); assay: AlphaScreen kinase assay, Jnk1; conditions: read-out: IC50, activity toward kinase Jnk1
T10 construct: purchased Upstate Biotechnology
T10 sequence (P45983 whole entry): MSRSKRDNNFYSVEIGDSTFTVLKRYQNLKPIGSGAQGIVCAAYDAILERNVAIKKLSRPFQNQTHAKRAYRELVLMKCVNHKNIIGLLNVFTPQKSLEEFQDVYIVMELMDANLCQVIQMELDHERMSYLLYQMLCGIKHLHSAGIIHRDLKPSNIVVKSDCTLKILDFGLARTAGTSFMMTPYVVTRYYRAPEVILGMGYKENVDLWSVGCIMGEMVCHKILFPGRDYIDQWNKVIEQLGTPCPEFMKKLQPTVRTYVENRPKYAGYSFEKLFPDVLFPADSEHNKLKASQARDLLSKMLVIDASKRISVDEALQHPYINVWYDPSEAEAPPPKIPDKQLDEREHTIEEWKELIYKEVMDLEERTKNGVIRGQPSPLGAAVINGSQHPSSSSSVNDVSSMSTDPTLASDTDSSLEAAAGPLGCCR

Jnk3 = molecular target: T11, Jnk3 (Homo sapiens, UniProt P53779); assay: AlphaScreen kinase assay, Jnk3; conditions: read-out: IC50, activity toward kinase Jnk3
T11 construct: purchased Upstate Biotechnology
T11 sequence (P53779 whole entry): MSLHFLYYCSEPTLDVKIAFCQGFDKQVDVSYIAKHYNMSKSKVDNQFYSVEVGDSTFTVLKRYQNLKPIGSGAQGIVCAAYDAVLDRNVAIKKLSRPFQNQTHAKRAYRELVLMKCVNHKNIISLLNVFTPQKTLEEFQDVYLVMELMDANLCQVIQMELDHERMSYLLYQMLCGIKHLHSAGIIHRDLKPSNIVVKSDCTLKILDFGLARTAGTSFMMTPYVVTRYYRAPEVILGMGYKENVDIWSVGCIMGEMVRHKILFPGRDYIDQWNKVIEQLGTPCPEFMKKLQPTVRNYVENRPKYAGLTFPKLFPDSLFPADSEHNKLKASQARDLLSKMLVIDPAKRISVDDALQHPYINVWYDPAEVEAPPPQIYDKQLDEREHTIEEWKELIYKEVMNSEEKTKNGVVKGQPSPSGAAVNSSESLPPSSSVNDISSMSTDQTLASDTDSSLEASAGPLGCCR

Measured: IC50

T1 sequence (P15056 whole entry): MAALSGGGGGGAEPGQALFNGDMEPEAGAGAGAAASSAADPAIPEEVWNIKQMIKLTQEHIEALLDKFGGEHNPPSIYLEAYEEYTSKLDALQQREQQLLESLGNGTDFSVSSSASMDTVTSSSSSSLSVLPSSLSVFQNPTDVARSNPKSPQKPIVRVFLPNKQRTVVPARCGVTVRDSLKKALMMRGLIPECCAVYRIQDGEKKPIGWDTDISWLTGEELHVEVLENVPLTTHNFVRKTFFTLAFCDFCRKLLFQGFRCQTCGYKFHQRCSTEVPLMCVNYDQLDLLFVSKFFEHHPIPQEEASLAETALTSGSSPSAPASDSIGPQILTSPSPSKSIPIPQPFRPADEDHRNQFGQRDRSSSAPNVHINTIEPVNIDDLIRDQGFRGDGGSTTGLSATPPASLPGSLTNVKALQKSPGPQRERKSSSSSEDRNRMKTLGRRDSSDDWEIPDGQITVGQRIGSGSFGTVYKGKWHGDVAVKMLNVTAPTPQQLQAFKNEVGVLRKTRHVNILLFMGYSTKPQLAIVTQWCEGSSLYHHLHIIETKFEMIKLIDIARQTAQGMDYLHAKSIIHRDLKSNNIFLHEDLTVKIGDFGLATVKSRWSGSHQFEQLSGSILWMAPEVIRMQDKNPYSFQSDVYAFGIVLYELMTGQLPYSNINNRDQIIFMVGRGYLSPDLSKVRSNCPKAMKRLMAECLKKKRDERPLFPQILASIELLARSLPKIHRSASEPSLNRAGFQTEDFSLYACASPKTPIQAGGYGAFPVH

O=C(c1cccc(O)c1F)c1c[nH]c2ncc(-c3cncnc3)cc12 [Compound P-0744, (2-fluoro-3-hydroxy-phenyl)-(5-pyrimidin-5-yl-1H-pyrrolo[2,3-b]pyridin-3-yl)-methanone]
≤ 10 µM: B-Raf | B-Raf V600E | c-Raf-1 | FGFR1 | Jnk2 | Ret

O=C(Nc1ccc(F)c(Cc2c[nH]c3ncc(Cl)cc23)c1F)NC1CCCC1 [Compound P-1575, 1-[3-(5-Chloro-1H-pyrrolo[2,3-b]pyridin-3-ylmethyl)-2,4-difluoro-phenyl]-3-cyclopentyl-urea]
≤ 10 µM: B-Raf V600E | Flt1 | Fms | Jnk2 | Kit

CCCCNC(=O)Nc1ccc(F)c(C(=O)c2c[nH]c3ncc(-c4cccc(S(C)(=O)=O)c4)cc23)c1 [Compound P-1627, 1-Butyl-3-{4-fluoro-3-[5-(3-methanesulfonyl-phenyl)-1H-pyrrolo[2,3-b]pyridine-3-carbonyl]-phenyl}-urea]
≤ 10 µM: B-Raf | B-Raf V600E | Fms | Jnk1 | Jnk2

CCCCNC(=O)n1ccc2c(Cc3c[nH]c4ncc(-c5cccnc5)cc34)cccc21 [Compound P-1656, 4-(5-pyridin-3-yl-1H-pyrrolo[2,3-b]pyridin-3-ylmethyl)-indole-1-carboxylic acid butylamide]
≤ 10 µM: B-Raf | B-Raf V600E | Fms | Jnk1 | Jnk2

O=C(Nc1ccc(C(=O)c2c[nH]c3ncccc23)cc1)Nc1cccc(C(F)(F)F)c1 [Compound P-1671]
≤ 10 µM: B-Raf | B-Raf V600E | c-Raf-1 | Fms | Jnk2 | Kit

CCc1ccc(S(=O)(=O)Nc2ccc(F)c(C(=O)c3c[nH]c4ncc(Cl)cc34)c2F)cc1 [Compound P-1700, N-[3-(5-Chloro-1H-pyrrolo[2,3-b]pyridine-3-carbonyl)-2,4-difluoro-phenyl]-4-ethyl-benzenesulfonamide]
≤ 10 µM: B-Raf | B-Raf V600E | Fms | Jnk2 | Kit

O=C(Nc1cccc(C(=O)c2c[nH]c3ncccc23)c1)Nc1ccc(Cl)c(C(F)(F)F)c1 [Compound P-1711, 1-(4-Chloro-3-trifluoromethyl-phenyl)-3-[3-(1H-pyrrolo[2,3-b]pyridine-3-carbonyl)-phenyl]-urea]
≤ 10 µM: B-Raf | B-Raf V600E | Fms | Jnk2 | Kit

COc1ccc(NC(=O)Nc2cccc(C(=O)c3c[nH]c4ncc(-c5cccnc5)cc34)c2)cc1 [Compound P-1723, 1-(4-Methoxy-phenyl)-3-[3-(5-pyridin-3-yl-1H-pyrrolo[2,3-b]pyridine-3-carbonyl)-phenyl]-urea]
≤ 10 µM: B-Raf | B-Raf V600E | Fms | Jnk1 | Jnk2

O=C(Nc1cccc(C(=O)c2c[nH]c3ncc(-c4cccnc4)cc23)c1)Nc1ccc(C(F)(F)F)cc1Cl [Compound P-1727, 1-(2-Chloro-4-trifluoromethyl-phenyl)-3-[3-(5-pyridin-3-yl-1H-pyrrolo[2,3-b]pyridine-3-carbonyl)-phenyl]-urea]
≤ 10 µM: B-Raf | B-Raf V600E | Fms | Jnk1 | Jnk2

O=C(Nc1cccc(F)c1)Nc1cccc(C(=O)c2c[nH]c3ncc(-c4cccnc4)cc23)c1 [Compound P-1730, 1-(3-Fluoro-phenyl)-3-[3-(5-pyridin-3-yl-1H-pyrrolo[2,3-b]pyridine-3-carbonyl)-phenyl]-urea]
≤ 10 µM: B-Raf | B-Raf V600E | Fms | Jnk1 | Jnk2

O=C(Nc1ccc(C(F)(F)F)cc1)Nc1cccc(C(=O)c2c[nH]c3ncc(-c4cccnc4)cc23)c1 [Compound P-1731, 1-[3-(5-Pyridin-3-yl-1H-pyrrolo[2,3-b]pyridine-3-carbonyl)-phenyl]-3-(4-trifluoromethyl-phenyl)-urea]
≤ 10 µM: B-Raf | B-Raf V600E | Fms | Jnk1 | Jnk2

O=C(Nc1cccc(C(=O)c2c[nH]c3ncc(-c4cccnc4)cc23)c1)Nc1cc(C(F)(F)F)ccc1Cl [Compound P-1732, 1-(2-Chloro-5-trifluoromethyl-phenyl)-3-[3-(5-pyridin-3-yl-1H-pyrrolo[2,3-b]pyridine-3-carbonyl)-phenyl]-urea]
≤ 10 µM: B-Raf | B-Raf V600E | Fms | Jnk2

O=C(Nc1cccc(C(=O)c2c[nH]c3ncc(Cl)cc23)c1)Nc1ccc(Cl)c(C(F)(F)F)c1 [Compound P-1737, 1-[3-(5-Chloro-1H-pyrrolo[2,3-b]pyridine-3-carbonyl)-phenyl]-3-(4-chloro-3-trifluoromethyl-phenyl)-urea]
≤ 10 µM: B-Raf | B-Raf V600E | c-Raf-1 | Fms | Jnk2 | Kit

O=C(Nc1cccc(C(=O)c2c[nH]c3ncc(-c4ccc(F)cc4)cc23)c1)Nc1ccc(C(F)(F)F)cc1Cl [Compound P-1753, 1-(2-Chloro-4-trifluoromethyl-phenyl)-3-{3-[5-(4-fluoro-phenyl)-1H-pyrrolo[2,3-b]pyridine-3-carbonyl]-phenyl}-urea]
≤ 10 µM: B-Raf | B-Raf V600E | Fms | Jnk2 | Jnk3
